According to PubChem BioAssay (NCI):
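Grown in 96-well plates, cells were treated for 48 hours with each compound at five concentrations. Insufficient inhibition: endpoint recorded as highest concentration tested. The concentration for full growth arrest is given as TGI.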

Experiments:
Experiment in all cases: growth of human tumour cells (NCI), 48 h
T-47D breast = system: T-47D breast
OVCAR-8 ovarian = system: OVCAR-8 ovarian
UACC-62 melanoma = system: UACC-62 melanoma
HCT-116 colon = system: HCT-116 colon
OVCAR-5 ovarian = system: OVCAR-5 ovarian
SF-539 CNS = system: SF-539 CNS
TK-10 renal = system: TK-10 renal
SF-268 CNS = system: SF-268 CNS
UO-31 renal = system: UO-31 renal
SK-MEL-2 melanoma = system: SK-MEL-2 melanoma
NCI-H23 lung = system: NCI-H23 lung
ACHN renal = system: ACHN renal
MCF7 breast = system: MCF7 breast
SK-MEL-28 melanoma = system: SK-MEL-28 melanoma
OVCAR-4 ovarian = system: OVCAR-4 ovarian
OVCAR-3 ovarian = system: OVCAR-3 ovarian
KM12 colon = system: KM12 colon
SW-620 colon = system: SW-620 colon
BT-549 breast = system: BT-549 breast
MDA-MB-231 breast = system: MDA-MB-231 breast
A498 renal = system: A498 renal
LOX IMVI melanoma = system: LOX IMVI melanoma
COLO 205 colon = system: COLO 205 colon
SK-MEL-5 melanoma = system: SK-MEL-5 melanoma
SF-295 CNS = system: SF-295 CNS
K-562 leukemia = system: K-562 leukemia
NCI-H460 lung = system: NCI-H460 lung
U251 CNS = system: U251 CNS
SR leukemia = system: SR leukemia
HCT-15 colon = system: HCT-15 colon
PC-3 prostate = system: PC-3 prostate
MOLT-4 leukemia = system: MOLT-4 leukemia
HL-60(TB) leukemia = system: HL-60(TB) leukemia
NCI-H522 lung = system: NCI-H522 lung
HOP-62 NSCLC = system: HOP-62 NSCLC
SK-OV-3 ovarian = system: SK-OV-3 ovarian
786-0 renal = system: 786-0 renal
A549 NSCLC = system: A549 NSCLC
DU-145 prostate = system: DU-145 prostate
IGROV1 ovarian = system: IGROV1 ovarian
SN12C renal = system: SN12C renal
EKVX NSCLC = system: EKVX NSCLC
CCRF-CEM leukemia = system: CCRF-CEM leukemia
MDA-MB-435 = system: MDA-MB-435
M14 melanoma = system: M14 melanoma
NCI/ADR-RES ovarian = system: NCI/ADR-RES ovarian
NCI-H226 lung = system: NCI-H226 lung
RPMI-8226 leukemia = system: RPMI-8226 leukemia
HOP-92 NSCLC = system: HOP-92 NSCLC
CAKI-1 renal = system: CAKI-1 renal
SNB-19 CNS = system: SNB-19 CNS
HCC-2998 colon = system: HCC-2998 colon
HT29 colon = system: HT29 colon
UACC-257 melanoma = system: UACC-257 melanoma
MDA-N = system: MDA-N
HS 578T breast = system: HS 578T breast
SNB-75 CNS = system: SNB-75 CNS
MALME-3M melanoma = system: MALME-3M melanoma

O=C1CNN=C(CSc2nc3ccc(I)cc3c(=O)n2Cc2ccccc2)N1
TGI (T-47D breast): 43.5 µM
TGI (OVCAR-8 ovarian): 94.7 µM
TGI (UACC-62 melanoma): 32.6 µM
TGI (HCT-116 colon): 50.7 µM
TGI (OVCAR-5 ovarian): > 100 µM
TGI (SF-539 CNS): 58.3 µM
TGI (TK-10 renal): 78.3 µM
TGI (SF-268 CNS): 57.7 µM
TGI (UO-31 renal): 4.37 µM
TGI (SK-MEL-2 melanoma): 34.7 µM
TGI (NCI-H23 lung): > 100 µM
TGI (ACHN renal): 31.6 µM
TGI (MCF7 breast): > 100 µM
TGI (SK-MEL-28 melanoma): 44.4 µM
TGI (OVCAR-4 ovarian): > 100 µM
TGI (OVCAR-3 ovarian): 45.1 µM
TGI (KM12 colon): 93.2 µM
TGI (SW-620 colon): > 100 µM
TGI (BT-549 breast): 86.3 µM
TGI (MDA-MB-231 breast): 38.9 µM
TGI (A498 renal): 94.1 µM
TGI (LOX IMVI melanoma): 33.4 µM
TGI (COLO 205 colon): 28.4 µM
TGI (SK-MEL-5 melanoma): 30.6 µM
TGI (SF-295 CNS): 59.7 µM
TGI (K-562 leukemia): > 100 µM
TGI (NCI-H460 lung): > 100 µM
TGI (U251 CNS): 52 µM
TGI (SR leukemia): 92.3 µM
TGI (HCT-15 colon): > 100 µM
TGI (PC-3 prostate): 79.6 µM
TGI (MOLT-4 leukemia): > 100 µM
TGI (HL-60(TB) leukemia): 4.03 µM
TGI (NCI-H522 lung): 68.6 µM
TGI (HOP-62 NSCLC): > 100 µM
TGI (SK-OV-3 ovarian): > 100 µM
TGI (786-0 renal): > 100 µM
TGI (A549 NSCLC): > 100 µM
TGI (DU-145 prostate): 53.4 µM
TGI (IGROV1 ovarian): 55.6 µM
TGI (SN12C renal): 34.3 µM
TGI (EKVX NSCLC): > 100 µM
TGI (CCRF-CEM leukemia): 50.5 µM
TGI (MDA-MB-435): 97.6 µM
TGI (M14 melanoma): > 100 µM
TGI (NCI/ADR-RES ovarian): 77.1 µM
TGI (NCI-H226 lung): 42.4 µM
TGI (RPMI-8226 leukemia): 91.9 µM
TGI (HOP-92 NSCLC): 72 µM
TGI (CAKI-1 renal): 34.3 µM
TGI (SNB-19 CNS): > 100 µM
TGI (HCC-2998 colon): 81.7 µM
TGI (HT29 colon): > 100 µM
TGI (UACC-257 melanoma): 70.7 µM
TGI (MDA-N): 87.2 µM
TGI (HS 578T breast): > 100 µM
TGI (SNB-75 CNS): 35.8 µM
TGI (MALME-3M melanoma): 54.2 µM
